Measured values as given in patent publication US20200017496A1 (priority 2017, published 2020).
Read-outs that look alike come from different tables or passages of the source.

Test system: Escherichia coli (ECO) isolates
Experiment: MIC of compounds alone and combined with antibacterials, broth microdilution (CLSI)
Type: cell-based
Settings: for MIC: Escherichia coli, ATB alone
Summary of the method: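 Log-phase isolates at final 5·10^5 CFU/mL in cation-adjusted Mueller-Hinton broth, incubated 16-20 h at 35° C in ambient air. MIC read visually as lowest concentration preventing growth, for compound alone and for antibacterial at each compound concentration.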

SMILES: CC(C)(O/N=C(\C(=O)N[C@@H]1C(=O)N2C(C(=O)[O-])=C(C[n+]3ccccc3)CS[C@H]12)c1csc(N)n1)C(=O)O [CAZ, Ceftazidime]
- MIC ATB in combination (ECO UFR74, AF1 @ 4 μg/mL): 1 µg/mL
- MIC ATB in combination (ECO UFR74, AF1 @ 8 μg/mL): <=0.25 μg/mL
- MIC ATB in combination (ECO UFR86, AF1 @ 4 μg/mL): 1 µg/mL
- MIC ATB in combination (ECO UFR86, AF1 @ 8 μg/mL): <=0.25 μg/mL
- MIC ATB in combination (ECO UFR174, AF1 @ 4 μg/mL): <=0.25 μg/mL
- MIC ATB in combination (ECO UFR174, AF1 @ 8 μg/mL): <0.25 µg/mL
- MIC ATB in combination (ECO UFR175, AF1 @ 4 μg/mL): 2 µg/mL
- MIC ATB in combination (ECO UFR175, AF1 @ 8 μg/mL): <=0.25 μg/mL
- MIC ATB in combination (ECO UFR176, AF1 @ 4 μg/mL): 2 µg/mL
- MIC ATB in combination (ECO UFR176, AF1 @ 8 μg/mL): <=0.25 μg/mL
- MIC ATB in combination (ECO UFR184, AF1 @ 4 μg/mL): 1 µg/mL
- MIC ATB in combination (ECO UFR184, AF1 @ 8 μg/mL): <=0.25 μg/mL
- MIC ATB in combination (ECO UFR185, AF1 @ 4 μg/mL): 2 µg/mL
- MIC ATB in combination (ECO UFR185, AF1 @ 8 μg/mL): <0.25 µg/mL
- MIC ATB in combination (ECO UFR186, AF1 @ 4 μg/mL): <=0.25 μg/mL
- MIC ATB in combination (ECO UFR186, AF1 @ 8 μg/mL): <=0.25 μg/mL
- MIC ATB in combination (ECO UFR187, AF1 @ 4 μg/mL): 1 µg/mL
- MIC ATB in combination (ECO UFR187, AF1 @ 8 μg/mL): <=0.25 μg/mL
- MIC ATB in combination (ECO UFR189, AF1 @ 4 μg/mL): <=0.25 μg/mL
- MIC ATB in combination (ECO UFR189, AF1 @ 8 μg/mL): <=0.25 μg/mL
- MIC ATB in combination (ECO UFR190, AF1 @ 4 μg/mL): <=0.25 μg/mL
- MIC ATB in combination (ECO UFR190, AF1 @ 8 μg/mL): <=0.25 μg/mL
- MIC ATB in combination (ECO UFR191, AF1 @ 4 μg/mL): <=0.25 μg/mL
- MIC ATB in combination (ECO UFR191, AF1 @ 8 μg/mL): <=0.25 μg/mL
- MIC ATB in combination (ECO UFR207, AF1 @ 4 μg/mL): <=0.25 μg/mL
- MIC ATB in combination (ECO UFR207, AF1 @ 8 μg/mL): <=0.25 μg/mL
- MIC ATB in combination (ECO UFR208, AF1 @ 4 μg/mL): 4 µg/mL
- MIC ATB in combination (ECO UFR208, AF1 @ 8 μg/mL): 2 µg/mL
- MIC ATB in combination (ECO UFR209, AF1 @ 4 μg/mL): <=0.25 μg/mL
- MIC ATB in combination (ECO UFR209, AF1 @ 8 μg/mL): <=0.25 μg/mL
- MIC ATB in combination (ECO UFR210, AF1 @ 4 μg/mL): <=0.25 μg/mL
- MIC ATB in combination (ECO UFR210, AF1 @ 8 μg/mL): <=0.25 μg/mL
- MIC ATB in combination (ECO UFR211, AF1 @ 4 μg/mL): 0.5 µg/mL
- MIC ATB in combination (ECO UFR211, AF1 @ 8 μg/mL): <=0.25 μg/mL
- MIC ATB in combination (ECO UFR212, AF1 @ 4 μg/mL): 4 µg/mL
- MIC ATB in combination (ECO UFR212, AF1 @ 8 μg/mL): <=0.25 μg/mL
- MIC ATB in combination (ECO UFR218, AF1 @ 4 μg/mL): <=0.25 μg/mL
- MIC ATB in combination (ECO UFR218, AF1 @ 8 μg/mL): <0.25 µg/mL
- MIC (strain ECO 4133 (TEM-30, OXA-1)): 0.5 µg/mL
- MIC (strain ECO 5302 (TEM-1, OXA-1)): 0.5 µg/mL
- MIC (strain ECO 131119 (TEM-1, OXA-48)): 0.5 µg/mL
- MIC (strain ECO 190314 (CTX-M-1)): 8 µg/mL
- MIC (strain ECO 190457 (CTX-M-15, OXA-1)): 16 µg/mL
- MIC (strain ECO 190549 (CTX-M-1)): 4 µg/mL
- MIC (strain ECO 200344 (CTX-M-1)): 8 µg/mL
- MIC (strain ECO 260304 (CTX-M-15)): 16 µg/mL
- MIC (strain ECO RGN238 (OXA-1)): 0.5 µg/mL
- MIC (strain ECO UFR15 (TEM-1, OXA-48)): 0.5 µg/mL
- MIC (strain ECO UFR86 (ompC-, ompF-), read-out: MIC): 2 µg/mL
- MIC (strain ECO UFR174 (TEM-1, KPC-2, OXA-1)): 8 µg/mL
- MIC (strain ECO UFR175 (TEM-1, KPC-2, OXA-9)): 32 µg/mL
